Experimental data reported in article PMC7570544, “Biological Activities and ADMET-Related Properties of Novel Set of Cinnamanilides” (Molecules, 2020).
Converted amounts (≈) assume the structure as drawn. “And” between values parts separate entries of the source, which are not always exact repeats. Equal values may be shown once.

Tests used:
[1] = system: methicillin-resistant Staphylococcus aureus (MRSA) SA 630; test: In vitro antibacterial evaluation, broth microdilution MIC, MRSA isolate SA 630; format: cell-based; conditions: clinical isolate MRSA SA 630
[2] = system: Staphylococcus aureus ATCC 29213; test: In vitro antibacterial evaluation, broth microdilution MIC, reference strain; format: cell-based; conditions: S. aureus ATCC 29213
[3] = system: NF-κB in THP1-Blue™ NF-κB cells; test: Determination of NF-κB activity after LPS stimulation (Quanti-Blue); format: cell-based, human; conditions: 1 µM compound, LPS 1 µg/mL; for increase of NF-κB activity / decrease of NF-κB activity: 1 h pretreatment, 24 h, vs DMSO group
Protocol: To evaluate the anti-inflammatory potential of novel compounds, their ability to attenuate the lipopolysaccharide (LPS)-activated pro-inflammatory transcription nuclear factor (NF)-κB was measured as was described previously. Briefly, THP1-Blue™ NF-κB cells were pretreated by tested compounds dissolved in DMSO in the non-toxic concentration 1 µM for 1 h. After LPS (1 µg/mL) stimulation, the NF-κB activity was evaluated by Quanti-Blue medium (Invivogen) according to the manufacturer’s instructions. The results from 3 independent experiments performed in triplicate (n = 9) were analyzed by GraphPad Prism 8.0.1 software. The outlaying values were excluded by ROUT algorithms (Q = 5%).
Figure 1 Effect of tested compounds on activity of transcription factor NF-κB. […] Then, lipopolysaccharide (LPS) 1 µg/mL was added to trigger the NF-κB activation. The activity of NF-κB was measured 24 h after LPS stimulation using QuantiBlue™ assay. The graph represents mean ± SEM (n = 9). […] Groups were compared with the help of the one-way ANOVA test followed by Fisher’s LSD multiple comparison test. * indicates statistical significance (p < 0.05) to DMSO group; ** indicates statistical significance (p < 0.01) to DMSO group; *** indicates statistical significance (p < 0.001) to DMSO group; **** indicates statistical significance (p < 0.0001) to DMSO group. CA—cinnamic acid.

[4] = RP-HPLC, 72:28 MeOH:H2O
[5] = Lipophilicity determination by RP-TLC; format: physicochemical; design: key to RM (MeOH:H2O): RM = log(1/RF - 1), from RP-18 TLC; conditions: for RM (MeOH:H2O): 72:28 MeOH:H2O; for RM (pH 7.4): 72:28 MeOH:NaOAc buffer (pH 7.4)
Protocol: RM values were determined from the RP-18 TLC measurements. […] The volatiles were carefully evaporated, and the plate was developed by MeOH (100%) or MeOH: H2O-HPLC (72:28 v/v) or MeOH: NaOAc buffer, pH 7.4 (72:28 v/v). After drying, the spots were visualized under UV (λ = 365 nm). RM data were obtained from equation: RM = log(1/RF-1). Each experiment was repeated three times.

[6] = system: Mycobacterium tuberculosis H37Ra/ATCC 25177; test: In vitro antimycobacterial evaluation; format: cell-based; conditions: M. tuberculosis H37Ra
Description: Isoniazid (Sigma) was used as the standard.

[7] = system: THP1-Blue™ NF-κB cell line; test: In vitro cell viability assay (WST-1); format: cell-based; conditions: Homo sapiens; THP1-Blue NF-κB cells, 24 h incubation, WST-1, mean ± SEM, n = 6; read-out: Tox IC50 ± SEM
Protocol: The cytotoxic effect of the tested compounds was specified on THP1-Blue™ NF-κB cell line (Invivogen; San Diego, CA, USA), as described previously. […] The final concentration of DMSO was 0.1% (v/v) in each well. The viability analysis was performed after 24 h incubation with the tested substances using the WST-1 Cell Proliferation Reagent kit (Roche Diagnostics, Basel, Switzerland) according to the manufacturer’s manual. […] The IC50 values were calculated by four-parameter logistic (4PL) analysis from obtained viability curves by GraphPad Prism 8.0.1 (San Diego, CA, USA) software.

[8] = system: methicillin-resistant Staphylococcus aureus (MRSA) 63718; test: In vitro antibacterial evaluation, broth microdilution MIC, MRSA isolate 63718; format: cell-based; conditions: clinical isolate MRSA 63718
[9] = system: S. aureus and MRSA isolates; test: Minimum bactericidal concentration (MBC) by subcultivation
S. aureus ATCC 29213 = test: MTT assay of bacterial viability; conditions: Staphylococcus aureus, ATCC29213, read-out: viability of S. aureus ATCC 29213 (MTT)
[10] = Staphylococcus aureus, ATCC29213

| SMILES | MIC [1] [µM] | MIC [2, 10] | increase of NF-κB activity [3] | Logk [4] | RM (MeOH:H2O) [5] | RM (pH 7.4) [5] | RM (100% MeOH) [5] | MIC [6] [µM] | IC50 [7] [µM] | MIC [8] [µM] | chromatographic logD (physchem; pH 6.5) | chromatographic logD (physchem; pH 7.4) | MIC [2] [µM] | MBC ([9]; S. aureus and MRSA isolates, compared with MIC) | bacteriostatic/bactericidal classification ([9]; bactericidal if MBC/MIC ≤4) | viability at 25.9 µM (S. aureus ATCC 29213) [%] | anti-inflammatory potential (LPS-induced NF-κB activation), in words [3] | decrease of NF-κB activity [3] |
| --- | --- | --- | --- | --- | --- | --- | --- | --- | --- | --- | --- | --- | --- | --- | --- | --- | --- | --- |
| O=C(/C=C/c1ccccc1)Nc1c(F)cc(F)cc1F [Compound 2, (2E)-3-Phenyl-N-(2,4,6-trifluorophenyl)prop-2-enamide] | > 924 | > 924 µM | 10–15% | −0.0831 | 0.1218 | 0.1951 | −0.6536 | > 462 | > 20 | > 924 | 0.0107 | 0.026 | – | – | – | – | – | – |
| O=C(/C=C/c1ccccc1)Nc1ccc(Cl)cc1Cl [Compound 4, (2E)-N-(2,4-Dichlorophenyl)-3-phenylprop-2-enamide] | > 880 | > 880 µM | 10–15% | 0.5278 | 0.6546 | 0.5495 | −0.3933 | – | > 20 | > 880 | 0.569 | 0.589 | – | – | – | – | – | – |
| O=C(/C=C/c1ccccc1)Nc1cc(Cl)c(Cl)cc1Cl [Compound 5, (2E)-3-Phenyl-N-(2,4,5-trichlorophenyl)prop-2-enamide] | > 790 | > 790 µM | 10–15% | 0.8373 | 0.9695 | 0.9832 | −0.2497 | – | > 20 | > 790 | 0.865 | 0.888 | – | – | – | – | – | – |
| O=C(/C=C/c1ccccc1)Nc1ccc(C(F)(F)F)c(F)c1 [Compound 10, (2E)-N-[3-Fluoro-4-(trifluoromethyl)phenyl]-3-phenylprop-2-enamide] | 12.9 (≈ 3.99 µg/mL) | 8 µg/mL and 25.9 µM | 10–15% | 0.5789 | 0.7923 | 0.5960 | −0.5032 | > 414 | > 20 | 25.9 (≈ 8.01 µg/mL) | 0.61 | 0.633 | 25.9 (≈ 8.01 µg/mL) | equal to the MIC values | bactericidal | 13.4 ± 0.1 | – | – |
| O=C(/C=C/c1ccccc1)Nc1cc(C(F)(F)F)ccc1Br [Compound 13, (2E)-N-[2-Bromo-5-(trifluoromethyl)phenyl]-3-phenylprop-2-enamide] | > 696 | > 696 µM | – | 0.5561 | 0.7194 | 0.5619 | −0.4325 | > 348 | > 20 | > 696 | 0.594 | 0.616 | – | – | – | – | insignificant anti-inflammatory potential | – |
| O=C(/C=C/c1ccccc1)Nc1ccc(F)cc1C(F)(F)F [Compound 14, (2E)-N-[4-Fluoro-2-(trifluoromethyl)phenyl]-3-phenylprop-2-enamide] | > 828 | > 828 µM | – | 0.1607 | 0.3011 | 0.1330 | −0.6797 | > 414 | > 20 | > 828 | 0.222 | 0.243 | – | – | – | – | – | approximately 9% |
| O=C(/C=C/c1ccccc1)Nc1ccc(Br)cc1C(F)(F)F [Compound 16, (2E)-N-[4-Bromo-2-(trifluoromethyl)phenyl]-3-phenylprop-2-enamide] | > 696 | > 696 µM | – | 0.4683 | 0.5730 | 0.4273 | −0.5624 | > 348 | > 20 | > 696 | 0.51 | 0.532 | – | – | – | – | – | – |
| O=C(/C=C/c1ccccc1)Nc1ccc([N+](=O)[O-])cc1C(F)(F)F [Compound 17, (2E)-N-[4-Nitro-2-(trifluoromethyl)phenyl]-3-phenylprop-2-enamide] | > 762 | > 762 µM | – | 0.3794 | 0.4998 | 0.4311 | −0.5633 | > 381 | > 20 | > 762 | 0.399 | 0.443 | – | – | – | – | – | – |
| O=C(/C=C/c1ccccc1)Nc1ccc([N+](=O)[O-])c(C(F)(F)F)c1 [Compound 18, (2E)-N-[4-Nitro-3-(trifluoromethyl)phenyl]-3-phenylprop-2-enamide] | > 762 | > 762 µM | – | 0.5004 | 0.6927 | 0.6160 | −0.4804 | > 381 | > 20 | > 762 | 0.51 | 0.557 | – | – | – | – | – | approximately 9% |
| O=C(/C=C/c1ccccc1)Nc1c(Br)cc(C(F)(F)F)cc1Br [Compound 19, (2E)-N-[2,6-Dibromo-4-(trifluoromethyl)phenyl]-3-phenylprop-2-enamide] | > 574 | > 574 µM | – | 0.4321 | 0.5301 | 0.3733 | −0.5206 | > 287 | > 20 | > 574 | 0.473 | 0.494 | – | – | – | – | – | – |
| O=C(/C=C/c1ccccc1)Nc1c(Br)cc(F)c(Cl)c1Br [Compound 20, (2E)-N-(2,6-Dibromo-3-chloro-4-fluorophenyl)-3-phenylprop-2-enamide] | > 595 | > 595 µM | – | 0.3139 | 0.4320 | 0.4138 | −0.5541 | > 298 | > 20 | > 595 | 0.37 | 0.392 | – | – | – | – | more potent than the parental cinnamic acid | approximately 9% |
